Reference: US20060130266A1, “Dermal drug delivery system” (priority 2004, published 2006)
Marks after values point to notes of the source that are not given here.

Legend:
[1] = octanol/water; cited from earlier work
[2] = In vitro skin permeation, Franz cell infinite dose study (optimisation studies with MP, BP, CF); settings: BP; for EF enhancement factor: flux vs untreated skin
[3] = Table 4b, brush A 450 Nm^−2, 20 s, 80 rpm
[4] = Table 4b, brush A 450 Nm^−2, 45 s, 80 rpm
[5] = Table 4b, brush A 750 Nm^−2, 45 s, 80 rpm
[6] = Table 4b, brush A 1200 Nm^−2, 45 s, 80 rpm
[7] = Table 5c, EtoH/PBS (50% ethanol donor solution)
[8] = Table 5c, brush A 450 Nm^−2, 45 s
[9] = Table 5c, brush B 300 Nm^−2, 15 s
[10] = Table 5c, brush B 300 Nm^−2, 25 s
[11] = Table 5c, brush B 450 Nm^−2, 15 s

## CCCCOC(=O)c1ccc(O)cc1 [BP, Butyl paraben]
[1]
  Log P (o/w): 3.57
[2]; [3]
  JS flux: 6.60 ± 0.49* 10^−3 μg/cm/s
  KP permeability coefficient: 3.30 ± 0.25 10^−5 cm/s
  TL lag time: 37.10 ± 2.26 min
  EF enhancement factor: 1.74
[2]; [4]
  JS flux: 7.50 ± 0.75* 10^−3 μg/cm/s
  KP permeability coefficient: 3.75 ± 0.37 10^−5 cm/s
  TL lag time: 25.22 ± 2.17 min
  EF enhancement factor: 1.97
[2]; [5]
  JS flux: 8.26 ± 0.89* 10^−3 μg/cm/s
  KP permeability coefficient: 4.13 ± 0.45 10^−5 cm/s
  TL lag time: 26.34 ± 1.48 min
  EF enhancement factor: 2.17
[2]; [6]
  JS flux: 8.62 ± 1.05* 10^−3 μg/cm/s
  KP permeability coefficient: 4.31 ± 0.52 10^−5 cm/s
  TL lag time: 26.39 ± 1.30 min
  EF enhancement factor: 2.26
[2]; Table 4b, delipidised skin
  JS flux: 15.95 ± 1.55* 10^−3 μg/cm/s
  KP permeability coefficient: 7.98 ± 0.78 10^−5 cm/s
  TL lag time: 18.58 ± 3 min
  EF enhancement factor: 4.20
[2]; Table 4b, untreated skin
  KP permeability coefficient: 1.90 ± 0.23 10^−5 cm/s
  TL lag time: 33.47 ± 8.79 min
[2]; [7]
  KP permeability coefficient: 9.24 ± 0.80 10^−5 cm/s
  TL lag time: 26.43 ± 5.05 min
[2]; Table 5c, EtoH/PBS
  EF enhancement factor: 3.75
[2]; [8]
  JS flux: 8.38 ± 1.09* 10^−4 μg/cm/s
  KP permeability coefficient: 4.19 ± 0.54 10^−5 cm/s
  TL lag time: 24.51 ± 5.50 min
  EF enhancement factor: 1.69
[2]; [9]
  JS flux: 6.16 ± 0.89* 10^−4 μg/cm/s
  KP permeability coefficient: 3.08 ± 0.44 10^−5 cm/s
  TL lag time: 22.65 ± 3.22 min
  EF enhancement factor: 1.25
[2]; [10]
  JS flux: 10.47 ± 0.96* 10^−4 μg/cm/s
  KP permeability coefficient: 5.23 ± 0.48 10^−5 cm/s
  TL lag time: 23.06 ± 2.19 min
  EF enhancement factor: 2.12
[2]; [11]
  KP permeability coefficient: 6.34 ± 1.03 10^−5 cm/s
  TL lag time: 14.55 ± 5.18 min
  EF enhancement factor: 2.57
[2]; Table 5c, delipidised skin
  KP permeability coefficient: 10.27 ± 1.43 10^−5 cm/s
  TL lag time: 8.17 ± 5.41 min
  EF enhancement factor: 4.16
[2]; Table 5c, tapestripped skin
  KP permeability coefficient: 7.80 ± 1.84 10^−5 cm/s
  TL lag time: 34.78 ± 4.44 min
  EF enhancement factor: 3.16
[2]; Table 5c, untreated skin
  KP permeability coefficient: 2.47 ± 0.11 10^−5 cm/s
  TL lag time: 35.84 ± 1.98 min
